Tested on: human engineered cardiac tissues (human iPSC derived cardiomyocytes co-cultured with human cardiac fibroblasts)
Assay: Drug testing with electrical stimulation of engineered cardiac tissues in the Biowire II 96-well plate (contractile dynamics from polymer wire displacement)
Format: cell-based
Conditions: thapsigargin 50×10^−6 m, n=2; for frequency of tissue beating: constant stimulation frequency 1.5 Hz, day 19, video after 15 min; for tissue contraction and relaxation time: electrical pacing 1.5 Hz, day 19 (after 12 days of electrical stimulation), video after 15 min
Description: To generate cardiac tissues, human iPSC derived cardiomyocytes co-cultured with human cardiac fibroblasts were seeded with hydrogel in the 96-well plate device. Tissue compaction in the first seven days was observed (FIG. 7A, FIG. 7B), with dramatic change in the first two days followed by stabilization after day 3. Electrical field stimulation of cardiac tissues was initiated at day 7 and continued for the additional 12 days. […] Thapsigargin (50×10^-6 m), an inhibitor of sarcoplasmic reticulum function in cardiomyocytes, was added in the presence of electrical pacing (1.5 Hz), resulting in a prolonged tissue contraction and relaxation time (FIG. 7H). […] Predominantly ventricular cardiomyocytes (CMs) were derived from the hiPSC line BJ1D, using monolayer differentiation protocols as previously described. At day 21 of differentiation, cardiomyocytes were disassociated into single cells with previously established methods. Briefly, 1 mg mL^-1 of collagenase type II (Worthington, LS004205) in Hank's Balanced Salt Solution was added to the monolayer cardiomyocyte cultures and incubated overnight at room temperature. The disassociated cells were mixed with cardiac fibroblasts (Lonza, NHCF-V) in a 10:1 cell number ratio. The mixed cells were pelleted and remixed in collagen hydrogel at 5.5×10^7 cells mL^-1. The cell-gel mixture was seeded at […] per microwell. A droplet of media was placed on the wall of the well to keep the moisture until gelation was complete. The plate was incubated at 37° C. and 5% CO2 for 10 min followed by media addition. After seeding (day 0), the tissues were cultured for seven days to allow remodeling around the POMaC wires. Bright field images of the tissues were taken daily to monitor tissue morphology. By day 7, the tissues synchronously contracted and deflected the POMaC wire with each contraction. SpectraMax […] 300 Imaging Cytometer was used to image tissues in the well plate to monitor the daily morphology changes of tissues. Nine pictures were taken in each well of the 96-well plate and automatically stitched together to show the entire view of the well. […] Average tissue width and width of the tissue (Tw), attachment site to the polymer sensor were measured using bright field images at the relaxed state. Passive displacement of polymer sensors was assessed in blue channel. […] The final readouts for the total and passive forces were interpolated according to the Tw and custom tip sizes. […] With built-in force sensor and electrodes, tissues were able to be assessed in situ in terms of their contractile dynamics and drug responses. […] The videos were analyzed using the custom MATLAB software. […]

C/C=C(/C)C(=O)O[C@H]1C(C)=C2[C@H]([C@@H]1OC(=O)CCCCCCC)[C@@](C)(OC(C)=O)C[C@H](OC(=O)CCC)[C@@]1(O)[C@H]2OC(=O)[C@@]1(C)O [Thapsigargin]
frequency of tissue beating: decreased by half
frequency of tissue beating (listed as thapsigargin): reduced by half
tissue contraction and relaxation time: prolonged
tissue contraction and relaxation time (listed as thapsigargin): slowed
